Holding throughout (assay type): cell-based
Data set [1] deals with SW1353 chondrosarcoma cells (IDH2-R172S/WT). The experiment in a line: H3K9me2 Western blot in IDH2 mutant SW1353 cells upon IDH2 knockdown. The note with it: SW1353 stable lines, doxycycline 100 ng/mL, 6 days. How it is done:
SW1353 chondrosarcoma cells (ATCC HTB-94) contain an activating mutation in IDH2 (IDH2-R172S/WT). These cells were cultured in RPM-1640 (Life Technologies, Carlsbad, Calif.) supplemented with 1% sodium pyruvate and 10% Tet-Free fetal bovine serum. IDH2 shRNAs were cloned into pLKO-Tet-ON-puromycin vectors. All shRNAs were validated to give sufficient knockdown of target as judged by RNA, protein, and reduced 2-HG production.
Lentiviral particles were produced by co-transfecting the shRNA plasmid of interest with packaging plasmids Δ8.9 and VSVG into 293T cells using Transit293® transfection reagent (Mirus, Madison, Wis.). Lentiviral supernatants were then used to spin-infect HT-1080 cells in the presence of 8 μg/mL polybrene. Cells recovered overnight in fresh medium and were then selected and continually cultured in appropriate antibiotics.
SW1353 stable lines were cultured with and without doxycycline (100 ng/mL final concentration) for 6 days in the absence of selection. At day 6, cells were lifted using trypsin and histones were extracted as previously described.
Histone extracts were prepared with NuPAGE® 4×LDS Sample Buffer (Life Technologies, Carlsbad, Calif.) and heated to 70° C. for 10 minutes. Samples were run on NuPage® Novex 4-12% Bis-Tris gel (Life Technologies, Carlsbad, Calif.) using MES buffer (Life Technologies, Carlsbad, Calif.). […]
A general note: A western blot detects proteins with antibodies after separation by electrophoresis.

Another data set relates to SW1353 cells. The experiment in a line: Histone profiling by LC-MS/MS, IDH2 shRNA vs. non-targeting control shRNA. To be noted: doxycycline 100 ng/mL, 6 days, vs. shNTC. How it is done:
Also profiled were three endogenously mutant cell lines upon modulation of the target by chemical or genetic means in order to evaluate other lysine methylation marks. We used histone acid extracts (as described in Example 1) from HT1080 and SNU1079 cells treated with 3 μM compound 162 or DMSO control for 6 days, as well as SW1353 cells that have been induced (100 ng/mL doxycycline) with IDH2 specific shRNA (shIDH2-891 or shNTC) for 6 days. Histones were further enriched with ActiveMotif® Histone purification mini kit (ActiveMotif Inc., Carlsbad, Calif.)
The purified histones were desalted by off line reversed phase chromatography on an 1200 Agilent tower (Agilent, Santa Clara, Calif.) using a Jupiter® 5 μm C4 300 Å Column 150×2 mm (Phenomenex, Torrance, Calif.). The resulting peak area was used to estimate concentration against the peak area of histones of known concentration. The desalted histones were lyophilyzed prior to lysine derivatization. […]
The data obtained via mass spectrometry was interpreted using Mascot Distiller® (Matrix Science, Boston, Mass.) for identification followed by manual verification. The peak area obtained from the data acquired was processed using Skyline Software® (v1.4.0.422 University of Washington, Seattle, Wash.) for quantitation of the peptides bearing post translational modifications.

Another data set relates to HCT116 IDH1/2 WT cells. Put plainly: H3K9me2 Western blot after exogenous 2-HG treatment. To be noted: 10 mM 2-HG or 1 mM Cell-Permeable 2-HG for about 30 days. How it is done:
In order to evaluate the effect of IDH1 mutations, IDH2 mutations and 2-HG on H3K9me2, HCT116 colorectal cells that were engineered to endogenously express various clinically relevant mutations in IDH1 or IDH2 (Horizon Discovery, Cambridge, UK) were assayed for changes in H3K9me2 levels. […] HCT116 IDH1/2 WT cells were also exogenously treated with 10 mM 2-HG or 1 mM Cell-Permeable 2-HG for about 30 days. All cells were grown in McCoy's 5A Media (Life Technologies, Carlsbad, Calif.) containing 10% Fetal Bovine Serum (Hyclone, Logan, Utah). At least 10^6 cells per line were harvested and subject to a Histone Acid Extraction® Protocol (Abcam, Cambridge, Mass.). Cells in culture were rinsed with PBS and detached using 0.25% trypsin. Trypsin was deactivated using fresh media and the sample was spun down at 1000 rpm for 5 minutes. Media was aspirated and samples were kept at −80° C. until ready for processing.
Cells were washed twice in ice-cold PBS supplemented with 5 mM sodium butyrate (Sigma-Aldrich, St. Louis Mo.). Cells were then resuspended in Triton Extraction Buffer (TEB: PBS containing 0.5% TritonX 100(v/v), 2 mM phenylmethylsulfonyl fluoride (PMSF), 0.02% (w/v) sodium azide) also supplemented with 5 mM sodium butyrate at density of 10^7 cells per mL. […] Histone extracts were subsequently quantified using a detergent compatible (“DC”) protein assay kit (BioRad, Hercules, Calif.). […]

“shIDH2-891: IDH2 specific shRNA, 5′ ATCTTTGACAAGCACTATAAG 3′ (SEQ ID NO: 10)”: the “H3K9me2 methylation level (Western blot, FIG. 3)” value in data set [1] was “H3K9me2 methylation level is reduced”. Moreover, in the data set on SW1353 cells, the “H3K9me0 level, change from control (mass spectrometry, FIG. 7)” value is “H3K9me0 level increases” and the “H3K9me2 level, change from control (mass spectrometry, FIG. 7)” value is listed as “H3K9me2 level reduction”.

With “shIDH2-309: IDH2 specific shRNA, 5′ GTGGACATCCAGCTAAAGTAT 3′ (SEQ ID NO: 9)”, the “H3K9me2 methylation level (Western blot, FIG. 3)” value in data set [1] is reported as “H3K9me2 methylation level is reduced”.

Take `O=C(O)CCC(O)C(=O)O` (centres unmarked) [2-HG, 2-hydroxyglutarate]: the “H3K9me2 levels (Western blot, FIG. 1B)” value with HCT116 IDH1/2 WT cells was “sufficient to increase H3K9me2 levels”.

The values above are taken from US20160312311A1, “MARKERS FOR ISOCITRATE DEHYDROGENASE INHIBITORS” (NOVARTIS AG, priority 2013, published 2016).
